Laboratory results from the supplement of paper PMC9938120.

Key:
Experiment in all cases: drug sensitivity score (DSS3, normalised partial AUC of % inhibition dose-response) (DSS (score)); higher = more sensitive (stronger inhibition of viability); extreme values may be limits of the assay
FMOC02_1 = patient-derived low-grade serous ovarian cancer cells; conditions: 72 h; library: FO5A; assay format: 2D, 384-well, CellTiter-Glo
Procedure, shortened: (§1)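 Cells were dispensed onto 384-well flat clear-bottom plates already holding compounds at five concentrations over a 10,000-fold range, using patient-derived ovarian cancer cells at passage under 10. Incubation lasted 72 h at 37 °C in 5% CO2, after which CellTiter-Glo viability data were processed in Breeze. Higher drug sensitivity scores, each a partial area under the percent-inhibition dose-response curve divided by the log of the upper asymptote, mean more sensitive cells.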

FMOC02_2 = patient-derived low-grade serous ovarian cancer cells; conditions: 72 h; library: FO5A; assay format: 2D, 384-well, CellTiter-Glo
Procedure, shortened: as §1

FMOC02_3 = patient-derived low-grade serous ovarian cancer cells; conditions: 72 h; library: FO5A; assay format: 2D, 384-well, CellTiter-Glo
Procedure, shortened: as §1

FMOC03 = patient-derived mucinous ovarian cancer cells; conditions: 72 h; library: FO5A; assay format: 2D, 384-well, CellTiter-Glo
Procedure, shortened: as §1

FMOC04 = patient-derived high-grade serous ovarian cancer cells; conditions: 72 h; library: FO5A; assay format: 2D, 384-well, CellTiter-Glo
Procedure, shortened: as §1

FMOC06 = patient-derived mucinous ovarian cancer cells; conditions: 72 h; library: FO5A; assay format: 2D, 384-well, CellTiter-Glo
Procedure, shortened: as §1

FMOC09 = patient-derived high-grade serous ovarian cancer cells; conditions: 72 h; library: FO5A; assay format: 2D, 384-well, CellTiter-Glo
Procedure, shortened: as §1

FMOC11 = patient-derived high-grade serous ovarian cancer cells; conditions: 72 h; library: FO5A; assay format: 2D, 384-well, CellTiter-Glo
Procedure, shortened: as §1

FMOC14 = patient-derived high-grade serous ovarian cancer cells; conditions: 72 h; library: FO5A; assay format: 2D, 384-well, CellTiter-Glo
Procedure, shortened: as §1

FMOC17 = patient-derived low-grade serous ovarian cancer cells; conditions: 72 h; library: FO5A; assay format: 2D, 384-well, CellTiter-Glo
Procedure, shortened: as §1

FMOC22 = patient-derived mucinous ovarian cancer cells; conditions: 72 h; library: FO5A; assay format: 2D, 384-well, CellTiter-Glo
Procedure, shortened: as §1

FMOC24 = patient-derived high-grade serous ovarian cancer cells; conditions: 72 h; library: FO5A; assay format: 2D, 384-well, CellTiter-Glo
Procedure, shortened: as §1

FMOC25_1 = patient-derived low-grade serous ovarian cancer cells; conditions: 72 h; library: FO4B; assay format: 2D, 384-well, CellTiter-Glo
Procedure, shortened: as §1

FMOC25_2 = patient-derived low-grade serous ovarian cancer cells; conditions: 72 h; library: FO5A; assay format: 2D, 384-well, CellTiter-Glo
Procedure, shortened: as §1

FMOC27 = patient-derived low-grade serous ovarian cancer cells; conditions: 72 h; library: FO5A; assay format: 2D, 384-well, CellTiter-Glo
Procedure, shortened: as §1

FMOC28 = patient-derived low-grade serous ovarian cancer cells; conditions: 72 h; library: FO5A; assay format: 2D, 384-well, CellTiter-Glo
Procedure, shortened: as §1

SMILES	drug sensitivity score (FMOC02_1)	drug sensitivity score (FMOC02_2)	drug sensitivity score (FMOC02_3)	drug sensitivity score (FMOC03)	drug sensitivity score (FMOC04)	drug sensitivity score (FMOC06)	drug sensitivity score (FMOC09)	drug sensitivity score (FMOC11)	drug sensitivity score (FMOC14)	drug sensitivity score (FMOC17)	drug sensitivity score (FMOC22)	drug sensitivity score (FMOC24)	drug sensitivity score (FMOC25_1)	drug sensitivity score (FMOC25_2)	drug sensitivity score (FMOC27)	drug sensitivity score (FMOC28)
CCCCCOC(=O)Nc1nc(=O)n([C@@H]2O[C@H](C)[C@@H](O)[C@H]2O)cc1F [Capecitabine]	0	0	0	0.4	1.95	0	0	0.1	0.7	0.5	2.5	0.6	0	0.7	0	0
COc1cc2c(Oc3ccc4[nH]c(C)cc4c3F)ncnc2cc1OCCCN1CCCC1 [Cediranib]	1.1	0.9	0	0	0	0.5	0	0.2	0	0.2	0	1.85	1.7	0	0	1
Cc1ccc(-c2cc(C(F)(F)F)nn2-c2ccc(S(N)(=O)=O)cc2)cc1 [Celecoxib]	0	0	0	0	0	0	0	0	0	0	0	0	0	0	0	0.3
Cc1cc(Nc2ncc(Cl)c(Nc3ccccc3S(=O)(=O)C(C)C)n2)c(OC(C)C)cc1C1CCNCC1 [Ceritinib]	2.6	4.2	4.3	1.5	3.15	3.7	3.1	0.5	0	2.4	1.7	0.35	0.6	4.8	2.2	0
Nc1nc(Cl)nc2c1ncn2[C@H]1C[C@H](O)[C@@H](CO)O1 [Cladribine]	7	3.3	4	0.5	0.2	0.2	1.8	0.8	0	0.4	3.9	0	2.4	7.2	2.3	0.3
C[C@@H](Oc1cc(-c2cnn(C3CCNCC3)c2)cnc1N)c1c(Cl)ccc(F)c1Cl [Crizotinib]	0.9	0.1	0	0	0.05	0	0	0	0	0	0	0.65	0	0.4	0	0
CC(C)(C)c1nc(-c2cccc(NS(=O)(=O)c3c(F)cccc3F)c2F)c(-c2ccnc(N)n2)s1 [Dabrafenib]	5.9	0.8	4.7	0	0	0	0	0	0	0.1	0	0	1.8	4	0	1.4
CCN(CC)CCN(Cc1ccc(-c2ccc(C(F)(F)F)cc2)cc1)C(=O)Cn1c(SCc2ccc(F)cc2)nc(=O)c2c1CCC2 [Darapladib]	0	0	1.6	0	0.25	0	0	0.1	1.3	0	0	4.2	0.1	0	0	1.2
Nc1ncn([C@H]2C[C@H](O)[C@@H](CO)O2)c(=O)n1 [Decitabine]	0.3	1.4	0.6	0	0	0.4	0	5.3	0	0.9	0.1	7.4	0	1.5	7.5	0
CC(=O)N(O)CCCCCNC(=O)CCC(=O)N(O)CCCCCNC(=O)CCC(=O)N(O)CCCCCN [Deferoxamine]	0	0	0.2	4.1	0	1.4	1.4	4.5	1.2	0	1.1	0	1.1	0	0	0
C[C@@H]1C[C@H]2[C@@H]3CCC4=CC(=O)C=C[C@]4(C)[C@@]3(F)[C@@H](O)C[C@]2(C)[C@@]1(O)C(=O)CO [Dexamethasone]	0	0	0	0	0	0	0	0	0	1.3	0	0	0	0	0	0
Cc1ccc(-n2nc(C(C)(C)C)cc2NC(=O)Nc2ccc(OCCN3CCOCC3)c3ccccc23)cc1 [Doramapimod]	0.1	0	0	0	0	0	0.8	2.4	0	0.4	0.3	1.85	0.8	0.1	0.1	7.1
CN1CCN(c2ccc3nc(-c4c(N)c5c(F)cccc5[nH]c4=O)[nH]c3c2)CC1 [Dovitinib]	0.6	1.4	1.1	0	0	0	0	0.1	0	0	0	1.6	0.2	0.4	0	1
C[C@H](Nc1ncnc2nc[nH]c12)c1cc2cccc(Cl)c2c(=O)n1-c1ccccc1 [Duvelisib]	0	0.1	0	0	0	1	0	0.7	0	0.5	0	0.65	0	0	0.1	0
Cc1cc(C)c(CNC(=O)c2cc(-c3ccc(CN4CCOCC4)cc3)cc3c2cnn3C2CCCC2)c(=O)[nH]1 [EPZ-5687]	0.4	0.9	1.5	0.6	0.05	0	0	0	0	0.1	0.6	1.7	0	1.8	3.1	5.1
COC(=O)N[C@@H](C)CNc1nccc(-c2cn(C(C)C)nc2-c2cc(Cl)cc(NS(C)(=O)=O)c2F)n1 [Encorafenib]	4.2	0	0.9	0	0	0	0	0	0	0	0	0	0.2	3.3	0	0
c1cn2cc(-c3ccc4cn[nH]c4c3)nc(Nc3ccc(N4CCOCC4)cc3)c2n1 [Entospletinib]	4.3	3.2	0	0	0	0	0	0.7	0	1.8	0	0	0.1	0	0	0
CNC(=O)c1ccc(N2C(=S)N(c3ccc(C#N)c(C(F)(F)F)c3)C(=O)C2(C)C)cc1F [Enzalutamide]	0	0	0	0	0	0.1	0	0	0	0	0	0	0	0	0.1	0
Cn1cc(C2=C(c3cn(C4CCN(Cc5ccccn5)CC4)c4ccccc34)C(=O)NC2=O)c2ccccc21 [Enzastaurin]	4.8	4.4	5.8	0.5	0	0	1.5	0	5	5.1	0.3	3.95	0	0	0.3	0
NS(=O)(=O)NCCNc1nonc1/C(=N/O)Nc1ccc(F)c(Br)c1 [Epacadostat]	0	0	0.4	0	0	0.1	0	0	0	0	0	0.1	0	0	0	0.9
C=C1C[C@@H]2[C@H](CC[C@]3(C)C(=O)CC[C@@H]23)[C@@]2(C)C=CC(=O)C=C12 [Exemestane]	0	0	0	0	0	0.4	0	0	0	0	0	0.35	0	0	0	0
O=C(Nc1nc2cccc(-c3ccc(CN4CCS(=O)(=O)CC4)cc3)n2n1)C1CC1 [Filgotinib]	2.6	2.9	6.1	0	0	1.3	0.4	0	0	3.3	0	3.1	1.9	3.9	5	5.2
CC(C)(C)NC(=O)[C@H]1CC[C@H]2[C@@H]3CC[C@H]4NC(=O)C=C[C@]4(C)[C@H]3CC[C@]12C [Finasteride]	0	0	0	0	0	0	0	0	0	0	0	1.1	0	0	0	0
